Measurements as given in PubChem BioAssay AID463199 (Broad Institute, 2010).
Active and inactive are the calls of the source.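 Rule for the calls: active = AC50, the dose giving half-maximal effect, exceeds a fixed cutoff for a compound that rescues yeast growth under heat; inactive = the rest, inconclusive results apart.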

Each compound was assayed on S. cerevisiae Burl-1 ts mutant growth, BacTiter-Glo, 38.5C 24 h (assay: growth induction of Burl-1 ts yeast mutant, dose response, counter-screen for SUMOylation pathway inhibitor project, whole organism, S. cerevisiae, luminescence (AID 463199)).

Row | Structure (SMILES) | AC50
1 | O=C(COc1ccccc1Cl)c1ccc[nH]1 | > 42 µM (inactive)
2 | O=C1NC(Cc2c[nH]c3ccccc23)C(=O)N1Cc1ccc(CN2C(=O)NC(Cc3c[nH]c4ccccc34)C2=O)cc1 (configuration not stated) | > 42 µM (inactive)
3 | N#CCSc1nc2c(c(C3CC=CCC3)c1C#N)CCC2 (configuration not stated) | > 42 µM (inactive)
4 | CC(NC(=O)OCc1ccccc1)C(=O)N1CC(O)CC1C(=O)O (configuration not stated) | > 21 µM (inactive)
5 | CCOc1ccc(NC(=O)CNc2ccc(C)cc2Cl)cc1 | > 42 µM (inactive)
6 | COC(=O)c1ccccc1NC(NC(=O)c1ccco1)C(=O)c1ccccc1 (configuration not stated) | > 42 µM (inactive)
7 | Cc1c(NC(=O)CN2C(=O)NC(C)(c3ccc(OC(F)F)cc3)C2=O)c(=O)n(-c2ccccc2)n1C (configuration not stated) | > 42 µM (inactive)
8 | CC1CN(S(=O)(=O)c2cccc(C(=O)N=c3sccn3C)c2)CC(C)O1 (configuration not stated) | > 42 µM (inactive)
9 | O=C(O)CCSc1ccc([N+](=O)[O-])cc1[N+](=O)[O-] | > 42 µM (inactive)
10 | CC(C)c1ccc(NC(=O)COc2nnc(-c3cccs3)c(-c3cccs3)n2)cc1 | > 42 µM (inactive)
11 | O=C(/C=C/NNC(=O)c1ccc(Br)cc1)c1ccccc1 | > 42 µM (inactive)
12 | O=C(CSc1nnnn1C1CC2CCC1C2)Nc1ccnc2ccccc12 (configuration not stated) | > 42 µM (inactive)
13 | CCN(C(=O)Cn1c(=O)oc2ccccc21)c1cccc(C)c1 | > 42 µM (inactive)
14 | COc1ccc(/C=C2\SC(=S)N(CCCC(=O)Nc3cc(C)on3)C2=O)cc1OC | > 42 µM (inactive)
15 | COc1ccc(NC(=O)COc2cc(C)cc(C)c2)cc1S(=O)(=O)N1CCCCC1 | > 42 µM (inactive)
16 | COc1cc2cc(C)c3nnc(SCC(=O)Nc4cc(C)on4)n3c2cc1OC | > 42 µM (inactive)
17 | CCOC(=O)N1CCN(C(=O)c2ccc(OC)c(OC)c2)CC1 | > 42 µM (inactive)
18 | COc1ccc(Nc2cc(NCCCO)c([N+](=O)[O-])c3nonc23)cc1 | > 42 µM (inactive)
19 | O=C(/C=C/c1ccc(Cl)cc1)NCc1ccncc1 | 42 µM
20 | CN(C)C(/C=C/Nc1cccc(Br)c1)=C(C#N)C#N | > 42 µM (inactive)
21 | Cc1ccc(NC(=S)NC(NC(=O)c2ccccc2C)C(Cl)(Cl)Cl)c(C)c1 (configuration not stated) | > 42 µM (inactive)
22 | NN1C(=O)NC(c2ccccc2)(c2ccccc2)C1=O | > 42 µM (inactive)
23 | COc1ccc(C(=O)O)cc1S(=O)(=O)NCCN(C)C | > 42 µM (inactive)
24 | CCOC(=O)Cn1c(C)c(Br)c(=O)c2cccc(C)c21 | > 42 µM (inactive)
25 | CC1(C)c2[nH]c3ccccc3c2C[C@H]2C(=O)N(Cc3cccc(F)c3)C(=O)N21 | > 42 µM (inactive)
26 | Cc1ccccc1NC(=O)COC(=O)C1C2CC3OC(=O)C1C3C2 (configuration not stated) | > 42 µM (inactive)

Row | Structure (SMILES) | AC50
27 | Cc1ccc(NC(=S)N2CCN(Cc3ccc4c(c3)OCO4)CC2)c(C)c1 | > 42 µM (inactive)
28 | Nc1ccc(NC(=O)c2ccco2)c(Cl)c1 | > 42 µM (inactive)
29 | CCOc1ccc(Cn2c(SCCCCC#N)nc3c2c(=O)n(C)c(=O)n3C)cc1OCC | > 42 µM (inactive)
30 | CN(C)C(CNC(=O)CNC(=O)c1ccc(Br)cc1)c1ccccc1 (configuration not stated) | > 42 µM (inactive)
31 | COc1c2ccoc2nc2c(OC)c(OC[C@@H](O)C(C)(C)O)ccc12 | > 42 µM (inactive)
32 | CSc1ccccc1NC(=O)COc1nsnc1N1CCOCC1 | > 42 µM (inactive)
33 | Cc1c(NC(=O)c2ccc(N(C)S(C)(=O)=O)cc2)c(=O)n(-c2ccccc2)n1C | > 42 µM (inactive)
34 | CC(Oc1ccccc1[N+](=O)[O-])C(=O)N/N=C/c1ccoc1 (configuration not stated) | > 42 µM (inactive)
35 | O=C(COC(=O)/C=C/c1ccco1)Nc1ncc(C(F)(F)F)cc1Cl | > 42 µM (inactive)
36 | O=C(Cc1ccccc1)N1CCCC1c1ccccc1 (configuration not stated) | > 42 µM (inactive)
37 | CCn1c(SCc2nc3ccccc3[nH]2)nnc1-c1cccnc1 | > 42 µM (inactive)
38 | c1coc(C2OCC3(CO2)COC(c2ccco2)OC3)c1 (configuration not stated) | > 42 µM (inactive)
39 | Cc1ccc(SCC(=O)O/N=C(\N)c2cccc([N+](=O)[O-])c2)cc1 | > 42 µM (inactive)
40 | CC1CCCC(C)N1CCCNC(=O)c1csc2c1CCCCC2 (configuration not stated) | > 42 µM (inactive)
41 | Cc1cc(C(F)(F)F)nc(SCC(=O)Nc2cc(C)on2)n1 | > 42 µM (inactive)
42 | Cn1cnnc1-c1cccc(NS(=O)(=O)c2ccc(N3CCCC3=O)cc2)c1 | > 42 µM (inactive)
43 | Cc1ccc(NC(=O)C(CC(C)C)NC(=O)C2CCC(C)CC2)nc1 (configuration not stated) | > 42 µM (inactive)
44 | COc1cc(C(=O)OCC(=O)NCc2ccccc2)cc(NC(=O)c2ccco2)c1OC | > 42 µM (inactive)
45 | CC(C)C/C(=N/O)c1c[nH]c2ccccc12 | > 42 µM (inactive)
46 | CCOP(=O)(OCC)c1cc(CC)ccc1O | > 42 µM (inactive)
47 | CCc1cc2c(NCCO)ncnc2s1 | > 42 µM (inactive)
48 | COc1ccc([N+](=O)[O-])cc1NC(=O)C1CCCN1S(=O)(=O)c1cccs1 (configuration not stated) | > 42 µM (inactive)
49 | O=C(NNc1ccccc1)C(CCO)C(=O)NNc1ccccc1 | > 42 µM (inactive)
50 | OC1(c2ccc(F)cc2)CC2CCC(C1)N2Cc1nnnn1C1CCCCC1 (configuration not stated) | > 42 µM (inactive)
51 | CC(C)c1cccc(OCCCCN(C)C)c1 | > 42 µM (inactive)
52 | COc1ccc(N(C(=O)c2ccco2)C(C(=O)NC2CCCCC2)c2ccccc2)cc1 (configuration not stated) | > 42 µM (inactive)

Row | Structure (SMILES) | AC50
53 | O=C(c1cccs1)N(C(=O)c1cccs1)c1ccc(Br)cn1 | > 42 µM (inactive)
54 | CCOc1ccc(N(C(=O)C2CCCO2)C2C=CS(=O)(=O)C2)cc1 (configuration not stated) | > 42 µM (inactive)
55 | COC(=O)c1ccccc1NC(=O)CSc1nnnn1CC(=O)O | > 42 µM (inactive)
56 | COC(=O)C1C(c2ccc(OC)c(OC)c2)NC(c2ccc(OC)c(OC)c2)C(C(=O)OC)S1(=O)=O (configuration not stated) | > 42 µM (inactive)
57 | CN(C)c1ccc(CN(Cc2ccco2)C(=O)c2ccco2)cc1 | > 42 µM (inactive)
58 | CCc1nn(C)c(N)c1C | > 42 µM (inactive)
59 | Cc1cc(C(F)F)n2ncc(C(=O)NCCc3ccc(Cl)cc3)c2n1 | > 42 µM (inactive)
60 | CCCN(CCC)C(=O)CSc1ncccc1C(=O)O | > 42 µM (inactive)
61 | Cc1ccc(-c2noc(C3CCCN(S(=O)(=O)c4ccc5ccccc5c4)C3)n2)o1 (configuration not stated) | > 42 µM (inactive)
62 | COc1cc(C)c(Cl)c(C)c1S(=O)(=O)NCc1ccc2c(c1)OCO2 | > 42 µM (inactive)
63 | Nc1nnc(CC(=O)N2CCCCC2)s1 | > 42 µM (inactive)
64 | COc1cccc(/C=C/C(=O)OCC(=O)Nc2ccc(Cl)cn2)c1 | > 42 µM (inactive)
65 | Cc1ccc(N=c2ssnc2Cl)cc1 | > 42 µM (inactive)
66 | O=C1N=C(N2CCOCC2)S/C1=C\c1cccnc1 | > 42 µM (inactive)
67 | CN(C)C1(c2nnnn2-c2ccc(Cl)cc2)CCCCC1 | > 42 µM (inactive)
68 | CNS(=O)(=O)c1cccc(C(=O)OCC(=O)Nc2ccc(OC)cc2[N+](=O)[O-])c1 | > 42 µM (inactive)
69 | CCCc1cc(=S)n2c([nH]c3ccccc32)c1C#N | > 42 µM (inactive)
70 | N#CC1=C(N)Oc2c(ccc3ccccc23)C1c1cccs1 (configuration not stated) | > 42 µM (inactive)
71 | O=[N+]([O-])c1cccc(-c2nc3ccc([N+](=O)[O-])cc3[nH]2)c1 | > 42 µM (inactive)
72 | Cc1ccc(C(=O)NCCCNC(=O)c2ccc(C)nc2)cc1 | > 42 µM (inactive)
73 | Cc1ccc(S(=O)(=O)N2[C@@H](c3ccc(Br)cc3)C(C(=O)O)=C[C@H]2CC2CCCC2)cc1 | > 42 µM (inactive)
74 | CNC(=O)COC(=O)c1cc(-c2ccco2)nc2ccccc12 | > 42 µM (inactive)
75 | Cc1[nH]oc(=O)c1N=Nc1c(Cl)cccc1Cl | > 42 µM (inactive)
76 | O=S(=O)(NCc1ccco1)c1ccc2ccccc2c1 | > 42 µM (inactive)
77 | CCCCc1ccc(S(=O)(=O)NNC(=S)NCc2ccco2)cc1 | > 42 µM (inactive)
78 | COc1cc2nc(CSc3ncn[nH]3)[nH]c(=O)c2cc1OC | > 42 µM (inactive)

Row | Structure (SMILES) | AC50
79 | C=CCOC(=O)C(C#N)c1nc2ccccc2nc1N1CCN(Cc2ccccc2)CC1 (configuration not stated) | > 42 µM (inactive)
80 | Cc1ccc(S(=O)(=O)n2cccc2C)cc1 | > 42 µM (inactive)
81 | Cc1ccc(NC(=O)Cn2c(CCC(=O)O)ccc2-c2cccs2)cc1 | > 42 µM (inactive)
82 | CSCCC(NC(=O)c1ccco1)C(=O)N1CCN(Cc2ccccc2)CC1 (configuration not stated) | > 42 µM (inactive)
83 | COc1ccc(NC(=O)Nc2ccccc2C(=O)N2CCCC2)cc1 | 1.83 µM
84 | COc1cccc(S(=O)(=O)Nc2cccc(C(=O)N3CCOCC3)c2)c1 | > 42 µM (inactive)
85 | CN(C/C=C/c1ccccc1[N+](=O)[O-])Cc1ccccc1 | > 42 µM (inactive)
86 | NC(=S)N/N=C/c1cccc(O)c1O | > 42 µM (inactive)
87 | CCCCC(=O)NCCc1ccc(S(N)(=O)=O)cc1 | > 42 µM (inactive)
88 | CSc1ccccc1-n1nnnc1SCC(=O)Nc1ccccc1C | > 42 µM (inactive)
89 | C/C=C(/C)C(=O)OC1c2c(ccc3ccc(=O)oc23)OC(C)(C)C1OC(=O)/C(C)=C\C (configuration not stated) | > 42 µM (inactive)
90 | CCCNC(=O)COC(=O)CCC(=O)c1cccs1 | > 42 µM (inactive)
91 | Nc1cc[n+](CC(=O)Nc2ccccc2)cc1 | > 42 µM (inactive)
92 | C/C=C/C(=O)OCC(=O)Nc1nc2ccc(C)cc2s1 | > 42 µM (inactive)
93 | N#C/C(=N\Nc1cccc(F)c1)C(=N)N1CCCCCC1 | > 42 µM (inactive)
94 | O=c1oc2cc(S(=O)(=O)NCCCO)ccc2c2ccc(S(=O)(=O)NCCCO)cc12 | > 42 µM (inactive)
95 | CCCOc1ccc([N+](=O)[O-])c(N)c1 | > 42 µM (inactive)
96 | CC(C)C(O)(C(=O)NNc1ccccc1)C(C)C | > 42 µM (inactive)
97 | COc1ccc(NC(=O)c2ccc(-n3cncn3)c([N+](=O)[O-])c2)cc1 | > 21 µM (inactive)
98 | COc1ccc(NC(=O)C2CCN(c3cc(C)nc(-c4ccccc4)n3)CC2)cc1 | > 42 µM (inactive)
99 | COc1ccc(CN2CCN(C(=O)c3cc(-c4cccnc4)nc4ccc(Cl)cc34)CC2)c(OC)c1OC | > 42 µM (inactive)
100 | CCOC(=O)c1[nH]c2ccc(Br)cc2c1NC(=O)CCN1CCOCC1 | > 42 µM (inactive)
101 | CCCc1nc(NCc2ccccc2)c(C#N)c2c1CCCC2 | > 42 µM (inactive)
102 | CCN(CC)C1CCN(C(=O)c2cc(COc3ccc(-n4cncn4)cc3)on2)C1 (configuration not stated) | > 42 µM (inactive)
